Source: patent US20020137209A1, “Methods of dissociating nongenotropic from genotropic activity of steroid receptors” (priority 2000, published 2002)
Ends that are not written are not given here.

What was measured:
ERβ [1] = target: T1, ERβ (Homo sapiens, UniProt Q92731); assay: Etoposide-induced apoptosis in HeLa cells transfected with ERβ
ERβ [2] = target: T1, ERβ; assay: ERE-luc transcription in HeLa cells transfected with ERβ; type: cell-based; design: expressed in transfected cells; host or cells: HeLa; conditions: ERβ carrying HeLa cells, 10^−8 M E2
Description: (§1) A. HeLa cells were transiently transfected with the ERα expression vector alone or together with a vector carrying a fusion of the α-II peptide with the GAL4 DNA binding domain driven by the SV40 promoter. In addition, cells were transfected with ERE-luc or IL-6-luc for the transcription studies; or with EGFP-nuc for the apoptosis experiments. […] B. HeLa cells were transfected with ERα or ERβ alone or together with expression vectors carrying 2X293 or 2XF6 peptides. […] C. HeLa cells were transfected with a vector carrying the GRIP peptide alone or together with ERα.
(§2) DNA constructs. […] Bio. […] The sequence for peptide αII is […] (SEQ ID NO.: 1). […] (SEQ ID NO.: 3). The sequence for GRIP is […] […] […] (SEQ ID NO.: 4). […] The forward primer contained the restriction site for SalI and the ERα Kozak sequence and the reverse primer contained the BamH1 restriction site. Amplified PCR products were subcloned into the SalI/BamH1 restriction site of pCMV.
(§3) Transient transfections. HeLa cells were plated at 5×10^4/cm^2 and after 16-24 hours were transfected with a total amount of 3 μg of DNA using Lipofectamine (Life Technologies Inc). Following a 4-6 hours of incubation, the transfection mix was replaced with fresh medium containing 10% charcoal-stripped serum and treatments were initiated.

ERα = target: T2, ERα (Homo sapiens, UniProt P03372); assay: Etoposide-induced apoptosis in HeLa cells transfected with ERα; conditions: peptide co-transfected, 10^−8 M E2
T2 sequence (P03372 1-595): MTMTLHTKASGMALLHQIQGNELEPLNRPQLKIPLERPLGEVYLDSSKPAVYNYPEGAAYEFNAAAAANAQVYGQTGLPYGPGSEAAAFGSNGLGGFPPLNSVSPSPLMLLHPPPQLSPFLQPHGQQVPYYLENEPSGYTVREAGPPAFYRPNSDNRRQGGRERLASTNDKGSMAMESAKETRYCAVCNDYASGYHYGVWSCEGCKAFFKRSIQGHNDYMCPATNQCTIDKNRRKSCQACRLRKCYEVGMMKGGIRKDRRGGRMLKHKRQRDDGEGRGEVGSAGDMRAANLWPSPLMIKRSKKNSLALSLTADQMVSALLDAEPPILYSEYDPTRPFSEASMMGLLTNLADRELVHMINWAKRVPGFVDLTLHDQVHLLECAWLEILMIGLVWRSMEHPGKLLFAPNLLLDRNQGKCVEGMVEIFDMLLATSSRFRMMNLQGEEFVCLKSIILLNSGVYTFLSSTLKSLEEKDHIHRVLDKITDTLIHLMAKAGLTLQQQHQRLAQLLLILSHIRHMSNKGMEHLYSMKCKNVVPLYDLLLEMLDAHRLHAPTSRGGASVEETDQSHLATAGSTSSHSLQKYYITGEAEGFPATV

ERβ [3] = target: T1, ERβ; assay: IL-6-luc transcription in HeLa cells transfected with ERβ; type: cell-based; design: expressed in transfected cells; host or cells: HeLa; conditions: ERβ carrying HeLa cells, 10^−8 M E2
Description: as §1, §2, §3

[4] = system: HeLa cells transfected with the vector without receptor (empty vector, ev); assay: Etoposide-induced apoptosis in HeLa cells transfected with empty vector; conditions: 10^−12M to 10^−8 M
[5] = system: osteocytic cell line MLO-Y4; assay: Apoptosis of MLO-Y4 osteocytic cells (trypan blue); type: cell-based
[6] = system: calvaria-derived murine osteoblastic cells; assay: Apoptosis of calvaria-derived osteoblastic cells (trypan blue)
[7] = system: embryonic fibroblasts derived from Src−/− mice; assay: Apoptosis in embryonic fibroblasts from Src−/− mice; type: cell-based; conditions: ER- and AR-expressing, also lack yes and Fyn
Procedure: Cell lysates were obtained and proteins were analyzed by Western blot analysis using anti-ERK1/2 or anti-phospho-ERK1/2 (p-ERK1/2) antibodies. […] After 30 min, etoposide was added and apoptosis was assayed 6 hours later as in FIG. 1B. […] RT-PCR was performed as described in the experimental procedures. C-E. HeLa cells were transfected with Nuc-EGFP and with expression vectors encoding the full length ERα or its E domain, or the AR alone (C, left panel) or together with a dn MEK (C, right panel); a Src mutant lacking the kinase activity (Src K^−), a Src mutant lacking the SH2 domain (Src ΔSH2), or a Src mutant lacking the SH3 domain (Src ΔSH3) (D); or with ERα together with wt Shc, or the dn Shc mutants Y239F/Y240F/Y317F (Shc FFF), Y317F (Shc YYF) or Y239F/Y240F (Shc FFY) (E). Bars represent means±SD of triplicate determinations. *p<0.05 versus cells cultured without steroids, by ANOVA.
Quantification of apoptotic cells in vitro. Apoptotic cells were quantified either by trypan blue staining or by direct visualization of changes in nuclear morphology (in the case of transfected HeLa cells), as previously described (Plotkin,L. et al. (1999). J.
RT-PCR analysis of the ERs and AR in embryonic fibroblasts. […]

ERK1/2 = assay: ERK phosphorylation in MLO-Y4 cells (Western blot); type: cell-based; conditions: for effect of inhibitor on induction of ERK phosphorylation by E2 or DHT: inhibitor 25 min, then 5 min E2 or DHT
Procedure: Western blot analysis. The phosphorylation status of ERK1/2 was analyzed by immunoblotting using a mouse monoclonal antibody recognizing tyrosine phosphorylated ERK1/2, or a rabbit polyclonal antibody recognizing total ERK1/2, followed by incubation with either an anti-mouse or an anti-rabbit antibody conjugated with horseradish peroxidase (Santa Cruz Biotechnology).

AR = target: T3, AR (Homo sapiens, UniProt P10275); assay: Etoposide-induced apoptosis in HeLa cells transfected with AR
T3 sequence (P10275 1-920): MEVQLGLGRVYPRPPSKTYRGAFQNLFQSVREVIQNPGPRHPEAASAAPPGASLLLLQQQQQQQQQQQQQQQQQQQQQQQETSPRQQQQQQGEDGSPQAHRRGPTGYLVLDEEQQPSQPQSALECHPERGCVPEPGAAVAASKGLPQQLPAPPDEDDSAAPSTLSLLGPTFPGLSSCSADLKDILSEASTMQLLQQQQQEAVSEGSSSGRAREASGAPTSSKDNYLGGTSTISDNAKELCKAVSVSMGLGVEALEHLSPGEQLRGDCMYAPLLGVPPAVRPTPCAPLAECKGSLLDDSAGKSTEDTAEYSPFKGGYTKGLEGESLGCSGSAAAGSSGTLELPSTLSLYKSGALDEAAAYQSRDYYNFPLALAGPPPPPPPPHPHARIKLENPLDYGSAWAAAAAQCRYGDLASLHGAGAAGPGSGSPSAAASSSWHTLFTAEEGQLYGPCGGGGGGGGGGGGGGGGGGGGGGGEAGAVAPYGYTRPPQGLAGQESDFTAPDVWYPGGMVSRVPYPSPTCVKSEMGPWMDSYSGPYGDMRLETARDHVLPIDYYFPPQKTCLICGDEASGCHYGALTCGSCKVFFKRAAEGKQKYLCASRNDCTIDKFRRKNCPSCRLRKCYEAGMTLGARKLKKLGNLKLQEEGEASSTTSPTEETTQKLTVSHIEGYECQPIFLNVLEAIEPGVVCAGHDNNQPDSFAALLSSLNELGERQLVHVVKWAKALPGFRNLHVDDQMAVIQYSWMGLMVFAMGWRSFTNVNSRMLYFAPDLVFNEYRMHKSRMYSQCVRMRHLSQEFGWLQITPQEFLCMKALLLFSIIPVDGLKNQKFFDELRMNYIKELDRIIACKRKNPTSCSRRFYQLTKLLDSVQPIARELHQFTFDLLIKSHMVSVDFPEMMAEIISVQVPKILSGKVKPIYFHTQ

T1 sequence (Q92731 whole entry, species assumed): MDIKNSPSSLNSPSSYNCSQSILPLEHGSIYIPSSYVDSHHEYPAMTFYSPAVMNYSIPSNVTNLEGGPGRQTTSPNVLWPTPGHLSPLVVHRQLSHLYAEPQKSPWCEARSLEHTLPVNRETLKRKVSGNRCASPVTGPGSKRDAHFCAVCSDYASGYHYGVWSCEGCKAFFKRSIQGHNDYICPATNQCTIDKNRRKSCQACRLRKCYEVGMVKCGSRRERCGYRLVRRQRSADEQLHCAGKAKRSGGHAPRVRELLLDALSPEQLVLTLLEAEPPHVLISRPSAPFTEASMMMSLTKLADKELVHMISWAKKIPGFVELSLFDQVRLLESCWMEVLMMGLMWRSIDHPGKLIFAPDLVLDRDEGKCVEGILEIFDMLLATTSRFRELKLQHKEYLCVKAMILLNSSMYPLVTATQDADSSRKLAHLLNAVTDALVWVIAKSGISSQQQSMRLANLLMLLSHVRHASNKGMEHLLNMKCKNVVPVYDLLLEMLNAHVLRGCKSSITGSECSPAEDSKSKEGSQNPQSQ

## 293: ERβ-specific peptide SSIKDFPNLISLLSR (SEQ ID NO.: 2); two copies expressed fused to GAL4 DNA binding domain (also: two copies fused to GAL4 DNA binding domain) [compound 293]
ERβ [1]; peptide co-transfected, 10^−8 M E2
  effect of peptide on the anti-apoptotic activity of ERβ (E2): did block
ERβ [2]
  effect of peptide on E2-induced ERE-Luc transcription: blocked
ERα
  effect of peptide on the anti-apoptotic activity of ERα (E2): did not have an effect
ERβ [3]
  effect of peptide on E2 effect on IL-6-Luc transcription: blocked

## C[C@]12CCC(=O)C[C@@H]1CC[C@@H]1[C@@H]2CC[C@]2(C)[C@@H](O)CC[C@@H]12 [DHT, 5β-dihydrotestosterone]
ERβ [1]; HeLa transfected with ERβ
  prevention of etoposide-induced apoptosis: prevented apoptosis in a dose-dependent manner
[4]
  effect on etoposide-induced apoptosis: Neither E2 nor DHT (10^−12M to 10^−8 M) had an effect
[5]; 10^−8 M steroid
  prevention of apoptosis induced by etoposide, dexamethasone or TNFα: prevented apoptosis
[5]; not shown
  dose-dependent inhibition of etoposide-induced apoptosis compared with calvaria cells: identical results
[6]; 10^−8 M steroid
  prevention of apoptosis induced by etoposide, dexamethasone or TNFα: prevented apoptosis
[7]
  anti-apoptotic effect in Src−/− fibroblasts (unlike Src+/+ wild type controls): unresponsive
ERK1/2; MLO-Y4 cells
  time of maximal effect on phosphorylation of ERKs: 5 min

## C[C@]12CC[C@@H]3c4ccc(O)cc4C[C@@H](CCCCCCCCC[S+]([O-])CCCC(F)(F)C(F)(F)F)[C@H]3[C@@H]1CC[C@@H]2O (some centres unmarked) [ICI 182,780]
[6]; antagonist pre-treatment 30 min, 10^−8 M DHT, etoposide
  effect of antagonist on the anti-apoptotic effect of DHT: blocked
[6]; antagonist pre-treatment 30 min, 10^−8 M E2, etoposide
  effect of antagonist on the anti-apoptotic effect of E2: blocked
AR
  effect of antagonist/inhibitor on the anti-apoptotic effect of E2 or DHT: abrogated

## Cc1ccc(-c2nn(C(C)(C)C)c3ncnc(N)c23)cc1 [PP1]
[5]; inhibitor 30 min prior to E2 or DHT, etoposide 6 hours
  effect of inhibitor on the anti-apoptotic effect of E2 and DHT: completely abrogated
ERK1/2
  effect of inhibitor on induction of ERK phosphorylation by E2 or DHT: blocked

## N#CC(=C(/N)Sc1ccccc1N)/C(C#N)=C(/N)Sc1ccccc1N [UO 126]
ERK1/2
  effect of inhibitor on induction of ERK phosphorylation by E2 or DHT: blocked
